Assay results as given in ChEMBL document CHEMBL4270515, “New pyrazolopyridine analogs: Synthesis, antimicrobial, antiquorum-sensing and antitumor screening” (Eur J Med Chem, 2018).
≈ marks a conversion by molar mass, not a printed value.

What was measured:
[1] = test system: Chromobacterium violaceum; assay: Inhibition of N-acyl-homoserinlactone-related quorum sensing system in Chromobacterium violaceum ATCC 12472 assessed as diameter of violacein pigment inhibition after 48 hrs
Candida albicans = assay: Antimicrobial activity against Candida albicans after 48 hrs by two-fold serial dilution method; format: functional
Aspergillus flavus = assay: Antimicrobial activity against Aspergillus flavus 3375 after 48 hrs by two-fold serial dilution method; format: functional; conditions: Aspergillus flavus, 3375, 48 h
Ehrlich [2] = assay: Antitumor activity against mouse EAC cells implanted in Swiss albino mouse assessed as effect on viable tumor cell count at 0.5 mg/mouse administered for 9 days by trypan blue staining based method (reference value: 83.20 10^6/ml); format: functional
Mus musculus [3] = assay: Toxicity in Swiss albino mouse implanted with mouse EAC cells assessed as effect on RBC count at 0.5 mg/mouse administered for 9 days (reference value: 3.69 10^6/mm3); format: organism-based; conditions: in vivo, 216 h
HepG2 = assay: Cytotoxicity against human HepG2 cells assessed as decrease in cell viability after 48 hrs by MTT assay; format: functional, cell-based; conditions: HepG2, 48 h
WISH = assay: Cytotoxicity against human WISH cells assessed as decrease in cell viability after 48 hrs by MTT assay; format: cell-based
[4] = Displacement of methyl green from DNA (unknown origin) incubated in dark for 24 hrs
Ehrlich [5] = assay: Antitumor activity against mouse EAC cells implanted in Swiss albino mouse assessed as effect on tumor volume at 0.5 mg/mouse administered for 9 days (reference value: 9.85 mL); format: functional
Mus musculus [6] = assay: Toxicity in Swiss albino mouse implanted with mouse EAC cells assessed as effect on hemoglobin content at 0.5 mg/mouse administered for 9 days (reference value: 8.15 g/dl); format: organism-based; conditions: in vivo, 216 h
MCF7 = assay: Cytotoxicity against human MCF7 cells assessed as decrease in cell viability after 48 hrs by MTT assay; format: functional, cell-based; conditions: MCF7, 48 h
Aspergillus fumigatus = assay: Antimicrobial activity against Aspergillus fumigatus 293 after 48 hrs by two-fold serial dilution method; format: functional; conditions: Af293, 48 h
Mus musculus [7] = assay: Toxicity in Swiss albino mouse implanted with mouse EAC cells assessed as effect on WBC count at 0.5 mg/mouse administered for 9 days (reference value: 23.96 10^3/mm3); format: organism-based; conditions: in vivo, 216 h
Bacillus cereus = assay: Antimicrobial activity against Bacillus cereus UW 85 after 24 hrs by two-fold serial dilution method; format: functional; conditions: UW 85, 24 h
Staphylococcus aureus = assay: Antimicrobial activity against Staphylococcus aureus ATCC 29213 after 24 hrs by two-fold serial dilution method; format: functional; conditions: ATCC 29213, 24 h
Escherichia coli = assay: Antimicrobial activity against Escherichia coli ATCC 12435 after 24 hrs by two-fold serial dilution method; format: functional; conditions: ATCC 12435, 24 h
Pseudomonas aeruginosa = assay: Antimicrobial activity against Pseudomonas aeruginosa PAO1 after 24 hrs by two-fold serial dilution method; format: functional; conditions: PAO1, 24 h
Ehrlich [8] = assay: Antitumor activity against mouse EAC cells implanted in Swiss albino mouse assessed as mean survival time at 0.5 mg/mouse administered for 9 days (reference value: 14.5 day); format: functional
Ehrlich [9] = assay: Antitumor activity against mouse EAC cells implanted in Swiss albino mouse assessed as increase in life span at 0.5 mg/mouse administered for 9 days relative to control; format: functional
HeLa = assay: Cytotoxicity against human HeLa cells assessed as decrease in cell viability after 48 hrs by MTT assay; format: functional, cell-based
WI-38 = assay: Cytotoxicity against human W138 cells assessed as decrease in cell viability after 48 hrs by MTT assay; format: cell-based; conditions: WI-38, 48 h

SMILES	inhibition zone (IZ) [1] [mm]	MIC (Candida albicans) [µM]	MIC (Aspergillus flavus) [µM]	Activity (Ehrlich [2]) [×10⁶ /ml]	Activity (Mus musculus [3]) [×10⁶ /mm3]	IC50 (HepG2) [µM]	IC50 (WISH) [µM]	IC50 [4] [µM]	Activity (Ehrlich [5]) [mL]	Activity (Mus musculus [6]) [g/dL]	IC50 (MCF7) [µM]	MIC (Aspergillus fumigatus) [µM]	Activity (Mus musculus [7]) [×10³ /mm3]	MIC (Bacillus cereus) [µM]	MIC (Staphylococcus aureus) [µM]	MIC (Escherichia coli) [µM]	MIC (Pseudomonas aeruginosa) [µM]	MST (Ehrlich [8]) [days]	ILS (Ehrlich [9]) [%]	IC50 (HeLa) [µM]	other results
Oc1cc(O)c2c(c1)O[C@H](c1ccc(O)c(O)c1)[C@@H](O)C2	2	–	–	–	–	–	–	–	–	–	–	–	–	–	–	–	–	–	–	–	–
OC(Cn1cncn1)(Cn1cncn1)c1ccc(F)cc1F [FLUCONAZOLE]	–	6530 (≈ 2000 µg/mL)	–	–	–	–	–	–	–	–	–	–	–	–	–	–	–	–	–	–	–
Cc1n[nH]c2c1C(c1ccc(N(C)C)cc1)C(C(=O)NNc1cc([N+](=O)[O-])ccc1[N+](=O)[O-])=C(N)N2 (stereo not given)	2.5	1010 (≈ 500 µg/mL)	1010 (≈ 500 µg/mL)	34.73	5.24	8.68	51.2	34	2.8	13.1	13	1010 (≈ 500 µg/mL)	10.32	253 (≈ 125 µg/mL)	507 (≈ 250 µg/mL)	1010 (≈ 500 µg/mL)	507 (≈ 250 µg/mL)	42	133.3	8.52	IC50 (WI-38): 55.4 µM
Cc1n[nH]c2c1C(c1ccc(N(C)C)cc1)C(C(=O)n1ncc(C#N)c1N)=C(N)N2 (stereo not given)	< 2	4960 (≈ 2000 µg/mL)	2480 (≈ 1000 µg/mL)	–	–	66.3	–	–	–	–	62.7	2480 (≈ 1000 µg/mL)	–	–	–	–	620 (≈ 250 µg/mL)	–	–	60.2	–
CC1(C)S[C@@H]2[C@H](NC(=O)[C@H](N)c3ccccc3)C(=O)N2[C@H]1C(=O)O [AMPICILLIN]	–	–	–	–	–	–	–	–	–	–	–	–	–	1430 (≈ 500 µg/mL)	716 (≈ 250 µg/mL)	44.7 (≈ 15.6 µg/mL)	–	–	–	–	–
Cc1n[nH]c2c1C(c1ccc(N(C)C)cc1)C(C(=O)N/N=C/c1ccc(Cl)cc1)=C(N)N2 (stereo not given)	< 2	1110 (≈ 500 µg/mL)	2220 (≈ 1000 µg/mL)	–	–	39.5	–	67.8	–	–	25.2	2220 (≈ 1000 µg/mL)	–	556 (≈ 250 µg/mL)	556 (≈ 250 µg/mL)	556 (≈ 250 µg/mL)	556 (≈ 250 µg/mL)	–	–	31.7	–
Cc1n[nH]c2c1C(c1ccc(N(C)C)cc1)C(C(=O)NN)=C(N)N2 (stereo not given)	5	1530 (≈ 500 µg/mL)	1530 (≈ 500 µg/mL)	–	–	66.4	–	68.2	–	–	42.6	1530 (≈ 500 µg/mL)	–	764 (≈ 250 µg/mL)	764 (≈ 250 µg/mL)	1530 (≈ 500 µg/mL)	764 (≈ 250 µg/mL)	–	–	51.3	–
Cc1n[nH]c2c1C(c1ccc(N(C)C)cc1)C=C(N)N2 (stereo not given)	< 2	3710 (≈ 1000 µg/mL)	3710 (≈ 1000 µg/mL)	51.17	4.53	20.6	21.6	56.4	4.8	10.95	11.2	3710 (≈ 1000 µg/mL)	12.69	3710 (≈ 1000 µg/mL)	3710 (≈ 1000 µg/mL)	7430 (≈ 2000 µg/mL)	3710 (≈ 1000 µg/mL)	31	72.2	27.4	IC50 (WI-38): 18.1 µM
Cc1n[nH]c2c1C(c1ccc(N(C)C)cc1)C(C(=O)NNC(N)=S)=C(N)N2 (stereo not given)	< 2	1290 (≈ 500 µg/mL)	1290 (≈ 500 µg/mL)	30.94	5.59	6.32	49	36.7	2.25	13.4	5.21	1290 (≈ 500 µg/mL)	8.52	647 (≈ 250 µg/mL)	647 (≈ 250 µg/mL)	1290 (≈ 500 µg/mL)	647 (≈ 250 µg/mL)	46	155.5	6.26	IC50 (WI-38): 53.5 µM
Cc1n[nH]c2c1C(c1ccc(N(C)C)cc1)C(C(N)=O)=C(N)N2 (stereo not given)	< 2	6400 (≈ 2000 µg/mL)	6400 (≈ 2000 µg/mL)	21.46	5.94	5.28	76.4	28	1.35	14	4.55	3200 (≈ 1000 µg/mL)	8.2	–	–	–	3200 (≈ 1000 µg/mL)	61	238.9	5.77	IC50 (WI-38): 68.5 µM
COc1cccc2c1C(=O)c1c(O)c3c(c(O)c1C2=O)C[C@@](O)(C(=O)CO)C[C@@H]3O[C@H]1C[C@H](N)[C@H](O)[C@H](C)O1 [DOXORUBICIN]	–	–	–	16.36	5.32	–	8.14	31.3	1	12.75	–	–	8.96	–	–	–	–	62	244.4	–	–
Cc1n[nH]c2c1C(c1ccc(N(C)C)cc1)C(C(=O)O)=C(N)N2 (stereo not given)	11	798 (≈ 250 µg/mL)	399 (≈ 125 µg/mL)	–	–	39.7	–	41.7	–	–	22	399 (≈ 125 µg/mL)	–	99.7 (≈ 31.3 µg/mL)	99.7 (≈ 31.3 µg/mL)	199 (≈ 62.5 µg/mL)	199 (≈ 62.5 µg/mL)	–	–	33.6	–
Cc1n[nH]c2c1C(c1ccc(N(C)C)cc1)C(C(=O)N/N=C1/C(=O)Nc3ccccc31)=C(N)N2 (stereo not given)	< 2	2190 (≈ 1000 µg/mL)	2190 (≈ 1000 µg/mL)	–	–	57.9	–	–	–	–	59.1	2190 (≈ 1000 µg/mL)	–	2190 (≈ 1000 µg/mL)	2190 (≈ 1000 µg/mL)	4380 (≈ 2000 µg/mL)	548 (≈ 250 µg/mL)	–	–	52.9	–
